Assays:
Crl:CD (SD) rat [1] = experiment: Rat 4-week repeated oral administration toxicity test of benzenesulfonate of compound A, stomach histopathology; type: in vivo; conditions: once a day, 4 weeks, 30 mg/kg
Procedure: (§1) i) To Crl:CD (SD) rat was orally administered compound A ([…]) suspended in a 1% methylcellulose liquid once a day for 7 days. ii) After completion of the administration, the rat was exsanguinated to death under ether anesthesia, then the stomach was removed, fixed in a 10% neutral buffered formalin aqueous solution, and then stained with hematoxylin-eosin to prepare a specimen, and the change in the stomach was observed histopathologically. 2) Rat 4-week repeated oral administration toxicity test of benzenesulfonate of compound A
as §1, with “administered benzenesulfonate of” for “administered”, “4 weeks.” for “7 days.”, “histopathologically.” for “histopathologically. 2) Rat 4-week repeated oral administration toxicity test of benzenesulfonate of compound A”

[2] = Storage stability test of salts of compound A (1-week preliminary stability test, content by HPLC); type: physicochemical; conditions: for decomposition / decrease in purity on storage (in words): 1-week preliminary stability test (severe test), light, humidity and other factors; for content of salt of compound A after storage, relative to the content before storage of 100%: HPLC
Procedure: For examining the storage stability for these salts with compound A, a 1-week preliminary stability test (severe test) was executed.
<Storage Stability Tests for Benzenesulfonate, Methanesulfonate and p-Toluenesulfonate of Compound A (1-Week Preliminary Stability Test)>
For benzenesulfonate, methanesulfonate and p-toluenesulfonate of compound A, after storing under the conditions of 40° C. 75% RH, 60° C. or light (1000 lux/hr), the content of each salt of compound A was measured by HPLC. The percentage of change, relative to the content before storage of 100%, was calculated.

Crl:CD (SD) rat [3] = experiment: Rat 1-week repeated oral administration toxicity test of compound A (free body), stomach histopathology; type: in vivo; conditions: once a day, 1 week (7 days), 30 mg/kg
Procedure: 1) Rat 1-week repeated oral administration toxicity test of compound A (free body)
as §1

[4] = tested on: rat choroidal neovascularization model; conditions: described in PTL 1; cited from earlier work
[5] = tested on: rat adjuvant arthritis model; conditions: described in PTL 1; cited from earlier work
[6] = tested on: tumor-bearing mouse model; conditions: described in PTL 1; cited from earlier work
[7] = tested on: VEGF-induced HUVEC proliferation; conditions: described in PTL 1; cited from earlier work

Compound | mineral deposition in the stomach (Crl:CD (SD) rat [1]) | decomposition / decrease in purity on storage (in words) [2] | content of salt of compound A after storage, relative to the content before storage of 100% ([2]; 40° C. 75% RH/1 week) [%] | content of salt of compound A after storage, relative to the content before storage of 100% ([2]; 60° C./1 week) [%] | content of salt of compound A after storage, relative to the content before storage of 100% ([2]; 1000 lux/hr, 1 week) [%] | mineral deposition in the stomach (Crl:CD (SD) rat [3]) | choroidal neovascularization inhibiting effect [4] | paw edema suppressing effect [5] | tumor proliferation suppressing effect [6] | cell proliferation inhibiting effect [7]
O=C(CO)Nc1cc(CSc2ncccc2C(=O)Nc2ccc(OC(F)(F)F)cc2)ccn1.O=S(=O)(O)c1ccccc1 [benzenesulfonate of compound A, benzenesulfonate of 2-[[[2-[(hydroxyacetyl)amino]-4-pyridinyl]methyl]thio]-N-[4-(trifluoromethoxy)phenyl]-3-pyridinecarboxamide] | not observed | did not show a decrease in purity | 100.0 | 100.0 | 100.0 | – | – | – | – | –
O=C(CO)Nc1cc(CSc2ncccc2C(=O)Nc2ccc(OC(F)(F)F)cc2)ccn1 [compound A, 2-[[[2-[(hydroxyacetyl)amino]-4-pyridinyl]methyl]thio]-N-[4-(trifluoromethoxy)phenyl]-3-pyridinecarboxamide] | – | – | – | – | – | observed | exhibits a choroidal neovascularization inhibiting effect | exhibits a paw edema suppressing effect | exhibits a tumor proliferation suppressing effect | exhibits a cell proliferation inhibiting effect
CS(=O)(=O)O.O=C(CO)Nc1cc(CSc2ncccc2C(=O)Nc2ccc(OC(F)(F)F)cc2)ccn1 [methanesulfonate of compound A] | – | decomposed by light | 99.8 | 99.9 | 99.1 | – | – | – | – | –
p-toluenesulfonate | – | decomposed by humidity | 92.3 | 99.3 | 99.8 | – | – | – | – | –
